This is an account of results in ChEMBL document CHEMBL1201862, “PubChem BioAssay data set” (2004).

Molecules are shown by their SMILES.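 Step 1: Grow cells in 96-well plates. Step 2: Expose to compound for 48 hours at 5 concentrations. Step 3: Interpolate endpoints linearly; if unreached, use highest concentration. GI50 marks 50% less growth.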 Active and inactive are the calls of the source. No stated cut-off is given here; in the data, active = GI50 up to about 1.1 µM and inactive = higher. Bounds are passed on as bounds.

Test systems include KM-20L2; SNB-78; M19-MEL; DMS-273; LXFL 529; XF498; DMS-114; HOP-18; RXF 631.
Test in all cases: inhibition of tumour cell growth, NCI panel, 48 h

With `O=C(N/C(=C\c1ccc(Oc2ccc(Cl)c(Cl)c2)cc1)c1nc2ccccc2[nH]1)c1ccccc1`, the GI50 in the assay on KM-20L2 is 17.7 µM (inactive); in the assay with SNB-78, 20.4 µM (inactive); in the assay with M19-MEL, 27.6 µM (inactive); in the assay on DMS-273, 21.2 µM (inactive); in the assay on LXFL 529 it was 12.5 µM (inactive); in the assay with XF498 it was 16.8 µM (inactive).
For `C=COC(=O)N[C@H]1CCc2cc(OC)c(OC)c(OC)c2-c2ccc(SC)c(=O)cc21`, the GI50 in the assay on KM-20L2, in the assay on SNB-78, in the assay with M19-MEL, with DMS-273, with DMS-114 and in the assay on LXFL 529 was < 0.01 µM (active) throughout. Also, the values for the GI50 in the assay on XF498 and in the assay with HOP-18 were < 0.01 µM (active) and > 100 µM (inactive), respectively.
In the case of `Cc1csc(CCC(N)C(=O)O)n1` (configuration not stated), the GI50 in the assay on SNB-78, in the assay with M19-MEL, in the assay with DMS-273, with LXFL 529 and in the assay on HOP-18 was > 100 µM (inactive) throughout.
As for `O=C1CCC(=O)c2c1c(O)c1ccncc1c2O`, the GI50 in the assay with KM-20L2 was 20.9 µM (inactive); with SNB-78 it was 23.7 µM (inactive); in the assay with M19-MEL, 2.92 µM (inactive); in the assay on RXF 631 it was 25.4 µM (inactive); in the assay on DMS-273, 17.3 µM (inactive); with DMS-114 it was 12 µM (inactive). For the same compound, the GI50 in the assay on LXFL 529 was 16.6 µM (inactive); with XF498, 18.4 µM (inactive); with HOP-18, 26.9 µM (inactive).
For `CCN(CC)CCn1c2ccccc2c(=O)c2c(OC)ccc(OC)c21`, the GI50 was 45.2 µM (inactive) with KM-20L2; 40.6 µM (inactive) with SNB-78; 65 µM (inactive) in the assay with M19-MEL; 37.3 µM (inactive) in the assay on DMS-273; 68.5 µM (inactive) with LXFL 529; 87.5 µM (inactive) in the assay with XF498.
For the compound `COc1ccc(/C=C/C(=O)c2sc(N)nc2C)cc1`, the GI50 in the assay on KM-20L2, in the assay with SNB-78, in the assay on M19-MEL, with DMS-273, in the assay on DMS-114 and with HOP-18 was > 100 µM (inactive) in each case.
Consider `O=C(/C=C/c1ccc(Cl)c(Cl)c1)c1cccc2ccccc12`, for which the GI50 is 5.22 µM (inactive) with KM-20L2; 11.4 µM (inactive) in the assay on SNB-78; 11.7 µM (inactive) in the assay with M19-MEL; 17 µM (inactive) with RXF 631; 4.05 µM (inactive) in the assay on DMS-273; 2.3 µM (inactive) in the assay on DMS-114. Moreover, the GI50 in the assay on LXFL 529 is 2.28 µM (inactive); with HOP-18, 17.3 µM (inactive).
Regarding `NC(=O)N/N=C(\CC1OC(=O)c2ccccc21)c1ccco1` (configuration not stated), the GI50 in the assay with KM-20L2, with M19-MEL, in the assay on RXF 631, in the assay on DMS-273, in the assay with DMS-114 and in the assay with LXFL 529 was > 100 µM (inactive) throughout. In addition, in the assay on HOP-18, the GI50 is > 100 µM (inactive).
In the case of `COc1nc(C(Cl)(Cl)Cl)c(Cl)c(OC)c1Cl` [PENCLOMEDINE], the GI50 with KM-20L2 is 47 µM (inactive); with SNB-78 it was 37.1 µM (inactive); in the assay with M19-MEL, 31.5 µM (inactive); with RXF 631, 17.6 µM (inactive); in the assay with DMS-273 it was 40.4 µM (inactive); in the assay on DMS-114, 25.4 µM (inactive). The GI50 was 25.3 µM (inactive) in the assay on XF498 and 36.1 µM (inactive) in the assay with HOP-18.
As for `CCC(CC)n1c(C)nc2c1C(=O)c1ccccc1C2=O`, the GI50 in the assay with KM-20L2 is 39.4 µM (inactive); in the assay with SNB-78 it was 49.7 µM (inactive); in the assay on M19-MEL, 14.9 µM (inactive); in the assay with DMS-273 it was 23.1 µM (inactive); in the assay on LXFL 529, 19.5 µM (inactive).
On to `COC(=O)C(C(=O)C(=O)Nc1nc2ccc([N+](=O)[O-])cc2s1)c1nc2ccc(Cl)cc2nc1O` (configuration not stated), for which the GI50 in the assay on KM-20L2, with SNB-78, with M19-MEL, in the assay with RXF 631, with DMS-273 and with DMS-114 was > 100 µM (inactive) throughout. Moreover, the GI50 with LXFL 529 and in the assay on HOP-18 was > 100 µM (inactive) throughout.
For `CCCCCCCCCCCCn1[nH]c(C)c(C(=S)SCCCCCCCC)c1=O`, the GI50 with KM-20L2 is 36.8 µM (inactive); in the assay with SNB-78 it was > 100 µM (inactive); in the assay on M19-MEL, 23.6 µM (inactive); in the assay with RXF 631 it was 75.7 µM (inactive); with DMS-273 it was 99.5 µM (inactive); in the assay on DMS-114, 26.7 µM (inactive). For the same compound, the GI50 was 53.2 µM (inactive) in the assay on LXFL 529, > 100 µM (inactive) in the assay on XF498 and 61.5 µM (inactive) in the assay on HOP-18.
For `O=C1C=CC(=O)c2c1cc1ccccc1c2O`, the GI50 in the assay with KM-20L2 is 19 µM (inactive); in the assay with SNB-78, 3.78 µM (inactive); with M19-MEL it was 4.01 µM (inactive); in the assay on DMS-273 it was 12.7 µM (inactive); in the assay with LXFL 529, 1.9 µM (inactive); in the assay with XF498, 3.01 µM (inactive). Moreover, in the assay with HOP-18, the GI50 is 18.2 µM (inactive).
For the compound `CC1COS(=O)O1` (configuration not stated), the GI50 in the assay on KM-20L2, with SNB-78, in the assay with M19-MEL, in the assay with DMS-273, in the assay on DMS-114 and with XF498 was > 100 µM (inactive) throughout. The GI50 in the assay with HOP-18 was > 100 µM (inactive).
For `COC(=O)C1=NC(=S)NC(c2ccccc2)C1c1nc2ccccc2o1` (configuration not stated), the GI50 in the assay with KM-20L2, in the assay with SNB-78, in the assay with M19-MEL, in the assay with DMS-114, with LXFL 529 and in the assay on XF498 was > 50 µM (inactive) in each case. The GI50 in the assay on HOP-18 was > 50 µM (inactive).
Turning to `N#C/C(=C\c1ccc2ccccc2c1)c1ccccc1`, the GI50 was 15.6 µM (inactive) in the assay on KM-20L2; 28.1 µM (inactive) in the assay with SNB-78; 26.6 µM (inactive) in the assay with M19-MEL; 30.5 µM (inactive) with RXF 631; 14 µM (inactive) in the assay with DMS-273; 29.4 µM (inactive) with LXFL 529. For the same compound, in the assay with HOP-18, the GI50 was 22.1 µM (inactive).
On to `COc1ccc([C@H]2CC(=O)NCCCCN2)cc1`, for which the GI50 in the assay with KM-20L2, in the assay on SNB-78, in the assay on M19-MEL, in the assay on DMS-273, in the assay on DMS-114 and with LXFL 529 was > 100 µM (inactive) in each case. The GI50 with XF498 and in the assay on HOP-18 was > 100 µM (inactive) in each case.
As to `Cc1ccc(NC(=O)CCC(CC(=O)C(C)(C)C)=NNC(=O)C(=O)NN)cc1C`, the GI50 in the assay on KM-20L2 is > 100 µM (inactive); with M19-MEL, > 100 µM (inactive); with DMS-273 it was > 100 µM (inactive); with LXFL 529 it was > 100 µM (inactive); with XF498 it was 64.4 µM (inactive); with HOP-18, > 100 µM (inactive).
For the compound `COc1nc(NC2OC(COC(C)=O)C(OC(C)=O)C(OC(C)=O)C2OC(C)=O)c(-c2csc(N)n2)c(=O)n1C` (configuration not stated), the GI50 was > 100 µM (inactive) with KM-20L2; 62.2 µM (inactive) in the assay with SNB-78; 36.5 µM (inactive) in the assay on M19-MEL; 53.5 µM (inactive) in the assay on DMS-114; 70 µM (inactive) with LXFL 529; 39.4 µM (inactive) with HOP-18.
For the compound `Cc1ccc(/N=N/c2ccc(N(CCC#N)CCC#N)cc2C)c(Br)c1`, the GI50 with SNB-78 was 24.7 µM (inactive); with M19-MEL, 25.4 µM (inactive); in the assay with RXF 631 it was 4.35 µM (inactive); in the assay on DMS-273, 10 µM (inactive); in the assay on DMS-114, 12.8 µM (inactive); in the assay on LXFL 529, 20 µM (inactive). The results for the GI50 in the assay with XF498 and in the assay with HOP-18 were 9.08 µM (inactive) and 15.6 µM (inactive), respectively.
With `O=C(c1nc2ccc([N+](=O)[O-])cc2nc1O)C(O)c1ccc2c(c1)OCO2` (configuration not stated), the GI50 in the assay with KM-20L2 was 47 µM (inactive); with M19-MEL, > 100 µM (inactive); with DMS-273 it was > 100 µM (inactive); in the assay with DMS-114, 29.5 µM (inactive); in the assay on LXFL 529 it was 71.8 µM (inactive); in the assay on HOP-18, > 100 µM (inactive).
On to `CC(C)[C@H]1CO[C@@H]2O[C@H](C)CC(=O)N21`, for which the GI50 in the assay with KM-20L2, in the assay with M19-MEL, in the assay with DMS-114, in the assay on LXFL 529 and in the assay with HOP-18 was > 100 µM (inactive) throughout.
